Measured values reported in patent US20230416677A1 (XCELL THERAPEUTICS INC., priority 2020, published 2023).

Columns and labels:
[1] = tested on: Human dermal papilla cells (hDPC); assay: Flow cytometry of dermal papilla cell biological markers; format: cell-based; conditions: serum-free medium with 0.1 g/L albumin and 1 to 100 pM rotenone versus control not treated with rotenone; FIG. 4
Description: The cells were detached from each flask by the use of TrypLE Express, and then the cells were centrifuged. The supernatant was discarded to leave only the cells in the lower layer. The cells were fixed for 15 minutes using a 4% formaldehyde solution, and then reacted on ice for 10 minutes using a 0.5% tween-20 permeabilization solution to prepare cells. The prepared cells were well resuspended in PBS supplemented with 1% FBS, and then the cells were stained using an antibody serving as a previously selected biological marker. CD34 and HLA-DR were selected as negative markers, and alkaline phosphatase, versican, and CD105 were selected as positive markers. After fixing the stained cells with 4% formaldehyde solution for 15 minutes, and flow cytometry was performed using CytoFLEX (Beckman Coulter, USA).

[2] = tested on: Human dermal papilla cells (hDPC); assay: CCK-8 proliferation of dermal papilla cells in serum-free medium treated with rotenone; format: cell-based; conditions: rotenone 10 to 100 pM, 72 hours, compared to control group (untreated) and PromoCell medium, FIG. 1
Description: Human dermal papilla cells (hDPC) purchased from PromoCell were inoculated in a Follicle Dermal Papilla cell Growth media (Promocell, Heidelberg, Germany) supplemented with 1% Antibiotic and Antimycotic Hyclone sv30079.91 (hereinafter referred to as Promocell medium), and a serum-free medium, and cultured in a 5% carbon dioxide incubator at 37° C. to prepare cells. The prepared human dermal papilla cells (hDPCs) were seeded at a concentration of 2×10^3/well into 96-well plates, in which a serum-free medium treated with different concentrations (0, 1, 10, 100, 1000 pM) of rotenone (Tocris Bioscience, UK) was put, in a Follicle Dermal Papilla cell Growth media as a commercially available medium, and then cultured for 72 hours. Then, the culture medium in each well was removed, then added to 10 ul CCK-8 reagent and 90 ul medium, respectively, and cultured for 2 hours at a temperature of 37° C. The absorbance of the supernatant was measured at 450 nm using an ELISA reader to confirm the extent of cell proliferation.

cell division = conditions: background statement; cited from earlier work
[3] = tested on: Human dermal papilla cells (hDPC); assay: Passage culture of dermal papilla cells in albumin-added serum-free medium in the presence or absence of rotenone (density, doubling time, accumulated cell number, viability); format: cell-based
Description: hDPCs were prepared in the same manner as in Example 1. […] The hDPCs were inoculated at a concentration of 1.52×10^5/flask. After culturing in a 5% carbon dioxide incubator at 37° C., photographs of the cells were taken before passage to confirm the density of dermal papilla cells according to the rotenone treatment.
On the other hand, each time the density of the cells proliferated to 90% or more, the cells were passaged. During the passage, the cells were detached from each flask by the use of TrypLE Express, and then the cells were centrifuged. The supernatant was discarded to leave only the cells in the lower layer. The cells were well resuspended by adding a condition-based medium, and then the cell numbers were measured using NC250™ (Chemometec, Denmark). Using the measured cell number and culture time, the doubling time and accumulated cell numbers per day were calculated using the following Equation.
A=previous passage, B=current passage
Doubling time=ln(2)×(Δtime between B and A)/ln(count B/count A) [Equation 1]
Accumulated cell number (ACN)=ACN of A×cell count of B/seeding number [Equation 2]
Each time the density of the cells proliferated to 90% or more, the cells were passaged. During the passage, the cells were detached from each flask by the use of TrypLE Express, and then the cells were centrifuged. The supernatant was discarded to leave only the cells in the lower layer. The cells were well resuspended by adding a condition-based medium, and then the cell viability was measured using NC250™(Chemometec, Denmark) at each passage.

Q: Which “biological positive markers (alkaline phosphatase, versican, CD105)” value [1] does the source give for `C=C(C)[C@H]1Cc2c(ccc3c2OC2COc4cc(OC)c(OC)cc4C2C3=O)O1` (stereo in doubt) [rotenone, (2R,6aS,12aS)-1,2,6,6a,12 ,12a-hexahydro-2-isopropenyl-8,9-dimethoxychromeno[3,4-b]furo(2,3-h)chromen-6-one] here?
A: maintained at higher levels

Q: And the “negative markers (CD34, HLA-DR)” value [1]?
A: maintained at lower levels

Q: What about the “proliferation of dermal papilla cells (CCK-8, absorbance 450 nm)” value [2] of the same compound?
A: proliferation of dermal papilla cells increases

Q: What about the “concentrations at which rotenone is known to inhibit cell division” value (cell division) of the same compound?
A: 10 to 100 nM

Q: And the “cell density of dermal papilla cells” value ([3]; 10 pM rotenone versus rotenone-untreated group, serum-free medium with 0.1 g/L albumin, FIG. 3a)?
A: higher cell density

Q: And the doubling time ([3]; rotenone -treated versus rotenone-untreated group, serum-free medium with 0.1 g/L albumin, FIG. 3b)?
A: lower doubling time

Q: And the cell viability ([3]; rotenone-treated versus rotenone-untreated group, 0.1 g/L albumin, each passage, FIG. 3d)?
A: higher cell viability

Q: What about the “accumulated cell numbers over time” value ([3]; rotenone-treated versus rotenone-untreated group, 0.1 g/L albumin, FIG. 3c) of the same compound?
A: higher
